Test results published in PubChem BioAssay AID248 (DTP/NCI, 2004).
Values joined by “and” are separate entries in the source; they are usually repeats but may differ in a detail not shown here. Equal entries are not always repeated. Toxic doses and inconclusive results are not listed. Cut-off read from the data, not from the text of the source: active = T/C of 150% or more; inactive = T/C below 125%.

System: L1210 leukemia ip in BDF1 mice, survival T/C
Assay: NCI In Vivo Anticancer Drug Screen. Data for tumor model L1210 Leukemia (intraperitoneal) in B6D2F1 (BDF1) mice
Conditions: endpoint: mean survival time, higher = longer survival
Method in brief: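 Transplanted-tumor mice were given test agent; controls received vehicle only. Survival readings from the two groups were divided (treated over control).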

[1] = dose: 100.0 mg/kg/injection, schedule: Q01DX009 (ip), vehicle: Klucel (hydroxypropylcellulose) (HPC)
[2] = dose: 100.0 mg/kg/injection, schedule: Q04DX003 (ip), vehicle: Klucel (hydroxypropylcellulose) (HPC)
[3] = dose: 200.0 mg/kg/injection, schedule: Q01DX009 (ip), vehicle: Klucel (hydroxypropylcellulose) (HPC)
[4] = dose: 200.0 mg/kg/injection, schedule: Q04DX003 (ip), vehicle: Klucel (hydroxypropylcellulose) (HPC)
[5] = dose: 400.0 mg/kg/injection, schedule: Q04DX003 (ip), vehicle: Klucel (hydroxypropylcellulose) (HPC)
[6] = dose: 100.0 mg/kg/injection, schedule: Q01DX009 (ip), vehicle: saline with Tween-80
[7] = dose: 200.0 mg/kg/injection, schedule: Q01DX009 (ip), vehicle: saline with Tween-80
[8] = dose: 400.0 mg/kg/injection, schedule: Q01DX009 (ip), vehicle: saline with Tween-80
[9] = dose: 100.0 mg/kg/injection, schedule: Q01DX001 (ip), vehicle: carboxymethylcellulose (CMC)
[10] = dose: 200.0 mg/kg/injection, schedule: Q01DX001 (ip), vehicle: carboxymethylcellulose (CMC)
[11] = dose: 400.0 mg/kg/injection, schedule: Q01DX001 (ip), vehicle: carboxymethylcellulose (CMC)
[12] = dose: 100.0 mg/kg/injection, schedule: Q01DX001 (ip), vehicle: saline
[13] = dose: 200.0 mg/kg/injection, schedule: Q01DX001 (ip), vehicle: saline
[14] = dose: 400.0 mg/kg/injection, schedule: Q01DX001 (ip), vehicle: saline
[15] = dose: 100.0 mg/kg/injection, schedule: Q04DX002 (ip), vehicle: saline with Tween-80
[16] = dose: 200.0 mg/kg/injection, schedule: Q04DX002 (ip), vehicle: saline with Tween-80
[17] = dose: 400.0 mg/kg/injection, schedule: Q04DX002 (ip), vehicle: saline with Tween-80
[18] = dose: 50.0 mg/kg/injection, schedule: Q01DX009 (ip), vehicle: Klucel (hydroxypropylcellulose) (HPC)
[19] = dose: 100.0 mg/kg/injection, schedule: Q04DX002 (ip), vehicle: carboxymethylcellulose (CMC)
[20] = dose: 200.0 mg/kg/injection, schedule: Q04DX002 (ip), vehicle: carboxymethylcellulose (CMC)
[21] = dose: 400.0 mg/kg/injection, schedule: Q04DX002 (ip), vehicle: carboxymethylcellulose (CMC)
[22] = dose: 100.0 mg/kg/injection, schedule: Q04DX003 (ip), vehicle: saline with Tween-80
[23] = dose: 200.0 mg/kg/injection, schedule: Q04DX003 (ip), vehicle: saline with Tween-80
[24] = dose: 400.0 mg/kg/injection, schedule: Q04DX003 (ip), vehicle: saline with Tween-80
[25] = dose: 100.0 mg/kg/injection, schedule: Q04DX002 (ip), vehicle: Klucel (hydroxypropylcellulose) (HPC)

Measured: T/C

CN1C2C=C(c3ccccc3)C(Br)C1CC2 (stereo not given)
inactive: dose: 20.0 mg/kg/injection, schedule: Q04DX003 (ip), vehicle: saline with Tween-80 95 % of control | dose: 40.0 mg/kg/injection, schedule: Q04DX003 (ip), vehicle: saline with Tween-80 97 % of control | dose: 75.0 mg/kg/injection, schedule: Q01DX001 (ip), vehicle: saline 102 % of control | dose: 150.0 mg/kg/injection, schedule: Q01DX001 (ip), vehicle: saline 98 % of control

c1ccc2oc(CCCCc3nc4ccccc4o3)nc2c1
inactive: [1] 91 % of control | [2] 102 % of control | [3] 102 % of control | [4] 104 % of control | dose: 400.0 mg/kg/injection, schedule: Q01DX009 (ip), vehicle: Klucel (hydroxypropylcellulose) (HPC) 92 % of control | [5] 102 % of control

CNc1ccc(C(=O)O)cc1OC
inactive: [6] 95 % of control | [7] 91 % of control | [8] 88 % of control

S=C(NP(=S)(NC(=S)N1CC1)NC(=S)N1CC1)N1CC1
inactive: [9] 95 % of control | [10] 91 % of control | [11] 90 % of control

N=c1ccn(C2OC(CO)C(O)C2O)c(=O)n1O (stereo not given)
inactive: dose: 5.0 mg/kg/injection, schedule: Q01DX009 (ip), vehicle: saline 123 % of control | dose: 10.0 mg/kg/injection, schedule: Q01DX009 (ip), vehicle: saline 100 % of control | [12] 105 % of control | [13] 108 % of control | [14] 103 % of control and 105 % of control | dose: 600.0 mg/kg/injection, schedule: Q01DX001 (ip), vehicle: saline 105 % of control | dose: 600.0 mg/kg/injection, schedule: Q01DX009 (ip), vehicle: saline 94 % of control | dose: 800.0 mg/kg/injection, schedule: Q01DX001 (ip), vehicle: saline 110 % of control | dose: 800.0 mg/kg/injection, schedule: Q01DX009 (ip), vehicle: saline 94 % of control
active: dose: 400.0 mg/kg/injection, schedule: Q01DX009 (ip), vehicle: saline 167 % of control

O=C(CC(=O)NO)NO
inactive: [15] 103 % of control | dose: 100.0 mg/kg/injection, schedule: Q04DX002 (ip), vehicle: saline 97 % of control | [16] 97 % of control | dose: 200.0 mg/kg/injection, schedule: Q04DX002 (ip), vehicle: saline 100 % of control | [17] 97 % of control | dose: 400.0 mg/kg/injection, schedule: Q04DX002 (ip), vehicle: saline 100 % of control

NC(CCC(=O)NC(=O)OCc1ccccc1)C(=O)O (stereo not given)
inactive: [6] 102 % of control | [7] 100 % of control | [8] 97 % of control

c1ccc(-c2nc3ccccc3s2)cc1
inactive: dose: 100.0 mg/kg/injection, schedule: Q04DX002 (ip), vehicle: gum acacia 101 % of control | dose: 200.0 mg/kg/injection, schedule: Q04DX002 (ip), vehicle: gum acacia 111 % of control | dose: 400.0 mg/kg/injection, schedule: Q04DX002 (ip), vehicle: gum acacia 86 % of control

CN(C)C/C(=N\O)c1ccc(Cl)cc1
inactive: [18] 93 % of control | [12] 97 % of control | [1] 93 % of control | [13] 100 % of control | [3] 100 % of control

O=C(NCCF)NC1C(O)OC(CO)C(O)C1O (stereo not given)
inactive: [12] 102 % of control | [13] 101 % of control | [14] 98 % of control

COc1ccc(/C=C/c2c3cc(OC)c(OC)cc3cc3c4cc(OC)c(OC)cc4cc[n+]23)cc1OC
inactive: [9] 93 % of control and 108 % of control | [19] 96 % of control and 89 % of control | dose: 100.0 mg/kg/injection, schedule: Q04DX003 (ip), vehicle: carboxymethylcellulose (CMC) 97 % of control | [10] 97 % of control and 100 % of control | [20] 100 % of control and 87 % of control | dose: 200.0 mg/kg/injection, schedule: Q04DX003 (ip), vehicle: carboxymethylcellulose (CMC) 92 % of control | [11] 102 % of control and 90 % of control | [21] 86 % of control and 92 % of control | dose: 400.0 mg/kg/injection, schedule: Q04DX003 (ip), vehicle: carboxymethylcellulose (CMC) 101 % of control

CCCCNC(=O)/C=C/C(=O)NCCCC
inactive: [22] 100 % of control | [23] 100 % of control | [24] 100 % of control

OC(COc1cccc2ccccc12)CN1CCCCC1 (stereo not given)
inactive: dose: 25.0 mg/kg/injection, schedule: Q04DX002 (ip), vehicle: Klucel (hydroxypropylcellulose) (HPC) 106 % of control | dose: 50.0 mg/kg/injection, schedule: Q04DX002 (ip), vehicle: Klucel (hydroxypropylcellulose) (HPC) 98 % of control | [25] 92 % of control

Clc1ccc2c(OCCN3CC3)ccnc2c1
inactive: [9] 102 % of control

O=C1CN=C(c2ccccc2)c2cc(Cl)ccc2N1
inactive: dose: 25.0 mg/kg/injection, schedule: Q01DX009 (ip), vehicle: Klucel (hydroxypropylcellulose) (HPC) 92 % of control | [18] 94 % of control | [1] 89 % of control | [25] 106 % of control | [3] 98 % of control | dose: 200.0 mg/kg/injection, schedule: Q04DX002 (ip), vehicle: Klucel (hydroxypropylcellulose) (HPC) 93 % of control | dose: 400.0 mg/kg/injection, schedule: Q04DX002 (ip), vehicle: Klucel (hydroxypropylcellulose) (HPC) 89 % of control

CC(C)N(SSN(C(C)C)C(C)C)C(C)C
inactive: [22] 95 % of control | [23] 100 % of control | [24] 89 % of control

CCN=C(c1ccc(NC(=O)c2ccc(C(=O)Nc3ccc(C(=NCC)N(CC)C(=O)OCC)cc3)cc2)cc1)N(CC)C(=O)OCC
inactive: dose: 2.0 mg/kg/injection, schedule: Q01DX015 (ip), vehicle: methylcellulose (MC) 101 % of control | dose: 4.0 mg/kg/injection, schedule: Q01DX015 (ip), vehicle: methylcellulose (MC) 104 % of control | dose: 8.0 mg/kg/injection, schedule: Q01DX015 (ip), vehicle: methylcellulose (MC) 97 % of control | dose: 16.0 mg/kg/injection, schedule: Q01DX015 (ip), vehicle: methylcellulose (MC) 100 % of control | dose: 31.0 mg/kg/injection, schedule: Q01DX015 (ip), vehicle: methylcellulose (MC) 102 % of control | dose: 62.0 mg/kg/injection, schedule: Q01DX015 (ip), vehicle: methylcellulose (MC) 98 % of control | dose: 125.0 mg/kg/injection, schedule: Q01DX015 (ip), vehicle: methylcellulose (MC) 96 % of control | dose: 250.0 mg/kg/injection, schedule: Q01DX015 (ip), vehicle: methylcellulose (MC) 95 % of control | dose: 375.0 mg/kg/injection, schedule: Q01DX015 (ip), vehicle: methylcellulose (MC) 91 % of control | dose: 500.0 mg/kg/injection, schedule: Q01DX015 (ip), vehicle: methylcellulose (MC) 101 % of control

O=S(=O)(Nc1ccc2ccccc2c1)c1cccc2ccccc12
inactive: [2] 101 % of control | [4] 93 % of control | [5] 101 % of control

c1ccn2nncc2c1
inactive: [9] 103 % of control | [10] 90 % of control

O=C(Nc1ccc(Cl)cc1)Oc1ccc(Cl)cc1Cc1ccccc1
inactive: [15] 93 % of control | [16] 118 % of control | [17] 89 % of control

COC(=O)c1cc(S(=O)(=O)c2cc(C(=O)OC)c(O)cc2OC)c(OC)cc1O
inactive: [19] 95 % of control | [20] 95 % of control | [21] 98 % of control

N#CC1C=CCC1 (stereo not given)
inactive: dose: 50.0 mg/kg/injection, schedule: Q01DX009 (ip), vehicle: saline with Tween-80 100 % of control | [6] 100 % of control
